In ChEMBL document CHEMBL4342421, “Current scenario of tetrazole hybrids for antibacterial activity” (Eur J Med Chem, 2019):
In brackets after ≈: the same amount, converted by molar mass.

How the values were obtained:
[1] = test system: Staphylococcus aureus; test: Antimicrobial activity against Staphylococcus aureus assessed as zone of inhibition at 5 mg/ml after 24 to 48 hrs by well diffusion method; type: functional; details: read-out: IZ
[2] = test system: Bacillus subtilis; test: Antimicrobial activity against Bacillus subtilis assessed as zone of inhibition at 5 mg/ml after 24 to 48 hrs by well diffusion method; type: functional; details: read-out: IZ
[3] = test system: Pseudomonas aeruginosa; test: Antimicrobial activity against Pseudomonas aeruginosa assessed as zone of inhibition at 5 mg/ml after 24 to 48 hrs by well diffusion method; type: functional; details: read-out: IZ
[4] = test system: Escherichia coli; test: Antimicrobial activity against Escherichia coli assessed as zone of inhibition at 5 mg/ml after 24 to 48 hrs by well diffusion method; type: functional; details: read-out: IZ
[5] = test system: Escherichia coli; test: Antimicrobial activity against Escherichia coli; type: functional
[6] = test system: Pseudomonas aeruginosa; test: Antimicrobial activity against Pseudomonas aeruginosa; type: functional
[7] = test system: Staphylococcus aureus; test: Antimicrobial activity against Staphylococcus aureus; type: functional
[8] = test system: Candida albicans; test: Antifungal activity against Candida albicans; type: functional
[9] = test system: Aspergillus niger; test: Antifungal activity against Aspergillus niger; type: functional
[10] = test system: Proteus mirabilis; test: Antimicrobial activity against Proteus mirabilis; type: functional
[11] = test system: Staphylococcus epidermidis; test: Antimicrobial activity against Staphylococcus epidermidis; type: functional
[12] = test system: Pseudomonas aeruginosa; test: Antimicrobial activity against Pseudomonas aeruginosa assessed as zone of inhibition at 5 mg/ml; type: functional; details: read-out: IZ
[13] = test system: Staphylococcus aureus; test: Antimicrobial activity against Staphylococcus aureus assessed as zone of inhibition at 5 mg/ml; type: functional; details: read-out: IZ
[14] = test system: Klebsiella pneumoniae; test: Antimicrobial activity against Klebsiella pneumoniae assessed as zone of inhibition at 5 mg/ml; type: functional; details: read-out: IZ
[15] = test system: Escherichia coli; test: Antimicrobial activity against Escherichia coli assessed as zone of inhibition at 5 mg/ml; type: functional; details: read-out: IZ
[16] = test system: Bacillus subtilis; test: Antimicrobial activity against Bacillus subtilis; type: functional
[17] = test system: Nakaseomyces glabratus; test: Antifungal activity against Candida glabrata; type: functional
[18] = test system: Candida tropicalis; test: Antifungal activity against Candida tropicalis; type: functional
[19] = test system: Pichia kudriavzevii; test: Antifungal activity against Candida krusei
[20] = test system: Escherichia coli; test: Antimicrobial activity against Escherichia coli after 24 hrs by agar disk diffusion method; type: functional
[21] = test system: Pseudomonas aeruginosa; test: Antimicrobial activity against Pseudomonas aeruginosa after 24 hrs by agar disk diffusion method; type: functional
[22] = test system: Klebsiella pneumoniae; test: Antimicrobial activity against Klebsiella pneumoniae after 24 hrs by agar disk diffusion method; type: functional
[23] = test system: Proteus mirabilis; test: Antimicrobial activity against Proteus mirabilis after 24 hrs by agar disk diffusion method; type: functional
[24] = test system: Bacillus cereus; test: Antimicrobial activity against Bacillus cereus; type: functional
[25] = test system: Staphylococcus aureus; test: Antimicrobial activity against Staphylococcus aureus ATCC 25923 assessed as zone of inhibition at 100 ug/ml after 24 hrs by disc diffusion method; type: functional; details: ATCC 25923, 24 h, read-out: IZ
[26] = test system: Klebsiella pneumoniae; test: Antimicrobial activity against Klebsiella pneumoniae ATCC 700603 assessed as zone of inhibition at 100 ug/ml after 24 hrs by disc diffusion method; type: functional; details: ATCC 700603, 24 h, read-out: IZ
[27] = test system: Escherichia coli; test: Antimicrobial activity against Escherichia coli assessed as zone of inhibition at 10 ug/ml; type: functional; details: read-out: IZ
[28] = test system: Candida albicans; test: Antifungal activity against Candida albicans assessed as zone of inhibition at 10 ug/ml; type: functional; details: read-out: IZ
[29] = test system: Bacillus subtilis; test: Antimicrobial activity against Bacillus subtilis assessed as zone of inhibition at 10 ug/ml; type: functional; details: read-out: IZ
[30] = test system: Lactococcus lactis; test: Antimicrobial activity against Streptococcus lactis assessed as zone of inhibition at 10 ug/ml; type: functional; details: read-out: IZ
[31] = test system: Pseudomonas; test: Antimicrobial activity against Pseudomonas assessed as zone of inhibition at 10 ug/ml; type: functional; details: read-out: IZ
[32] = test system: Streptomyces; test: Antimicrobial activity against Streptomyces assessed as zone of inhibition at 10 ug/ml; type: functional; details: read-out: IZ
[33] = test system: Aspergillus niger; test: Antifungal activity against Aspergillus niger assessed as zone of inhibition at 10 ug/ml; type: functional; details: read-out: IZ
[34] = test system: Penicillium; test: Antifungal activity against Penicillium assessed as zone of inhibition at 10 ug/ml; type: functional; details: read-out: IZ
[35] = Antifungal activity against Rhodotorula ingeniosa assessed as zone of inhibition at 10 ug/ml; type: functional; details: Sampaiozyma ingeniosa; read-out: IZ
[36] = test system: Escherichia coli; test: Antimicrobial activity against Escherichia coli assessed as zone of inhibition at 0.001 mol/cm3; type: functional
[37] = test system: Staphylococcus aureus; test: Antimicrobial activity against Staphylococcus aureus assessed as zone of inhibition at 0.001 mol/cm3; type: functional
[38] = test system: Bacillus cereus; test: Antimicrobial activity against Bacillus cereus assessed as zone of inhibition at 0.001 mol/cm3; type: functional

`Cc1c(-c2cc(-c3ccccc3)nc3nnnn23)cnn1-c1ccccc1` showed a zone of inhibition at 5000 µg/mL [1] of 13.7 to 18.6 mm, a zone of inhibition at 5000 µg/mL [2] of 13.7 to 18.6 mm and a zone of inhibition at 5000 µg/mL [3] of 13.7 to 18.6 mm. The zone of inhibition at 5000 µg/mL [4] was 13.7 to 18.6 mm.
`COc1ccc(C2=NN(C(N)=S)C(c3cc4cc(C)ccc4n4nnnc34)C2)cc1` (stereo not given) showed an MIC [5] of 3.12 to 25 µg/mL (≈ 7.49 to 59.9 µM), an MIC [6] of 3.12 to 25 µg/mL (≈ 7.49 to 59.9 µM) and an MIC [7] of 3.12 to 25 µg/mL (≈ 7.49 to 59.9 µM). The MIC [8] was 3.12 to 25 µg/mL (≈ 7.49 to 59.9 µM), the MIC [9] was 3.12 to 25 µg/mL (≈ 7.49 to 59.9 µM) and the MIC [10] was 3.12 to 25 µg/mL (≈ 7.49 to 59.9 µM). The MIC [11] was 3.12 to 25 µg/mL (≈ 7.49 to 59.9 µM).
With `COc1ccc(C2=NN(C(N)=S)C(c3cc4ccc(C)cc4n4nnnc34)C2)cc1` (stereo not given) the MIC [5] was 3.12 to 25 µg/mL (≈ 7.49 to 59.9 µM), the MIC [6] was 3.12 to 25 µg/mL (≈ 7.49 to 59.9 µM) and the MIC [7] was 3.12 to 25 µg/mL (≈ 7.49 to 59.9 µM). For the same compound, the MIC [8] was 3.12 to 25 µg/mL (≈ 7.49 to 59.9 µM), the MIC [9] was 3.12 to 25 µg/mL (≈ 7.49 to 59.9 µM) and the MIC [10] was 3.12 to 25 µg/mL (≈ 7.49 to 59.9 µM). The MIC [11] was 3.12 to 25 µg/mL (≈ 7.49 to 59.9 µM).
Work on `Cc1nc2ccccc2cc1Cn1cc(CSc2nnnn2-c2ccccc2)nn1` yielded a zone of inhibition at 5000 µg/mL [12] of 11 to 19 mm, a zone of inhibition at 5000 µg/mL [13] of 11 to 19 mm and a zone of inhibition at 5000 µg/mL [14] of 11 to 19 mm. It also gave a zone of inhibition at 5000 µg/mL [15] of 11 to 19 mm.
Work on `Fc1cc2nc(SCc3ccc(-c4ccccc4-c4nnnn4C(c4ccccc4)(c4ccccc4)c4ccccc4)cc3)[nH]c2cc1-n1ccnc1` yielded an MIC [5] of 16 to 64 µg/mL (≈ 22.5 to 90 µM), an MIC [6] of 16 to 64 µg/mL (≈ 22.5 to 90 µM) and an MIC [7] of 16 to 64 µg/mL (≈ 22.5 to 90 µM). It also gave an MIC [16] of 16 to 64 µg/mL (≈ 22.5 to 90 µM), an MIC [8] of 16 to 64 µg/mL (≈ 22.5 to 90 µM) and an MIC [17] of 16 to 64 µg/mL (≈ 22.5 to 90 µM). It also gave an MIC [18] of 16 to 64 µg/mL (≈ 22.5 to 90 µM) and an MIC [19] of 16 to 64 µg/mL (≈ 22.5 to 90 µM).
`CC1(C)S[C@@H]2[C@H](NC(=O)[C@H](N)c3ccccc3)C(=O)N2[C@H]1C(=O)O` [AMPICILLIN] gave an MIC [5] of 2 to 250 µg/mL (≈ 5.72 to 715 µM), an MIC [6] of 2 to 250 µg/mL (≈ 5.72 to 715 µM) and an MIC [7] of 2 to 250 µg/mL (≈ 5.72 to 715 µM). It also gave an MIC [20] of 6.25 µg/mL (≈ 17.9 µM), an MIC [21] of 6.25 µg/mL (≈ 17.9 µM) and an MIC [22] of 6.25 µg/mL (≈ 17.9 µM). For the same compound, the MIC [23] was 6.25 µg/mL (≈ 17.9 µM), the MIC [24] was 6.25 µg/mL (≈ 17.9 µM) and the MIC [16] was 2 to 64 µg/mL (≈ 5.72 to 183 µM). It also gave an MIC [8] of 2 to 250 µg/mL (≈ 5.72 to 715 µM), an MIC [17] of 2 to 64 µg/mL (≈ 5.72 to 183 µM) and an MIC [18] of 2 to 64 µg/mL (≈ 5.72 to 183 µM). For the same compound, the MIC [9] was 100 to 250 µg/mL (≈ 286 to 715 µM), the zone of inhibition at 100 µg/mL [25] was 16.5 mm and the zone of inhibition at 100 µg/mL [26] was 15 mm. It also gave an MIC [19] of 2 to 64 µg/mL (≈ 5.72 to 183 µM).
`CC(=O)OC[C@H]1O[C@H](n2nnnc2Cn2nnc3ccccc32)[C@H](OC(C)=O)[C@@H](OC(C)=O)[C@@H]1OC(C)=O` showed a zone of inhibition at 10 µg/mL [27] of 15 to 17 mm, a zone of inhibition at 10 µg/mL [28] of 15 to 17 mm and a zone of inhibition at 10 µg/mL [29] of 15 to 17 mm. The zone of inhibition at 10 µg/mL [30] was 15 to 17 mm, the zone of inhibition at 10 µg/mL [31] was 15 to 17 mm and the zone of inhibition at 10 µg/mL [32] was 15 to 17 mm. It also gave a zone of inhibition at 10 µg/mL [33] of 15 to 17 mm, a zone of inhibition at 10 µg/mL [34] of 15 to 17 mm and a zone of inhibition at 10 µg/mL [35] of 15 to 17 mm.
With `Cc1ccc2cc(Cn3cc(CSc4nnnn4-c4ccccc4)nn3)c(C)nc2c1` the zone of inhibition at 5000 µg/mL [12] was 11 to 19 mm, the zone of inhibition at 5000 µg/mL [13] was 11 to 19 mm and the zone of inhibition at 5000 µg/mL [14] was 11 to 19 mm. For the same compound, the zone of inhibition at 5000 µg/mL [15] was 11 to 19 mm.
`OC[C@H]1O[C@H](n2nnnc2Cn2nnc3ccccc32)[C@H](O)[C@@H](O)[C@@H]1O` gave a zone of inhibition at 10 µg/mL [27] of 11 to 15 mm, a zone of inhibition at 10 µg/mL [28] of 11 to 15 mm and a zone of inhibition at 10 µg/mL [29] of 11 to 15 mm. The zone of inhibition at 10 µg/mL [30] was 11 to 15 mm, the zone of inhibition at 10 µg/mL [31] was 11 to 15 mm and the zone of inhibition at 10 µg/mL [32] was 11 to 15 mm. It also gave a zone of inhibition at 10 µg/mL [33] of 11 to 15 mm, a zone of inhibition at 10 µg/mL [34] of 11 to 15 mm and a zone of inhibition at 10 µg/mL [35] of 11 to 15 mm.
Work on `c1ccc2c(c1)nnn2Cc1nnn[nH]1` yielded a zone of inhibition at 10 µg/mL [27] of 11 to 16 mm, a zone of inhibition at 10 µg/mL [28] of 11 to 16 mm and a zone of inhibition at 10 µg/mL [29] of 11 to 16 mm. It also gave a zone of inhibition at 10 µg/mL [30] of 11 to 16 mm, a zone of inhibition at 10 µg/mL [31] of 11 to 16 mm and a zone of inhibition at 10 µg/mL [32] of 11 to 16 mm. It also gave a zone of inhibition at 10 µg/mL [33] of 11 to 16 mm, a zone of inhibition at 10 µg/mL [34] of 11 to 16 mm and a zone of inhibition at 10 µg/mL [35] of 11 to 16 mm.
With `CCOC(=O)c1c(-n2cnnn2)sc(C(=O)c2ccccc2)c1C` the “inhibition zone (IZ)” value [36] was 22 - 24 mm, the “inhibition zone (IZ)” value [37] was 22 - 24 mm and the “inhibition zone (IZ)” value [38] was 22 - 24 mm.
